Assay results taken from PubChem BioAssay (NCI).
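96-well plates; 48 h exposure; 5 concentrations. Endpoints by linear interpolation between flanking doses. Not reached: highest tested concentration assigned. At the GI50, growth is halved. Definition used: TGI = concentration required for complete inhibition of growth.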

Columns and labels:
Assay in all cases: NCI tumour cell line growth inhibition, 48 h
786-0 renal = tested on: 786-0 renal
A498 renal = tested on: A498 renal
A549 NSCLC = tested on: A549 NSCLC
BT-549 breast = tested on: BT-549 breast
CAKI-1 renal = tested on: CAKI-1 renal
CCRF-CEM leukemia = tested on: CCRF-CEM leukemia
COLO 205 colon = tested on: COLO 205 colon
DU-145 prostate = tested on: DU-145 prostate
EKVX NSCLC = tested on: EKVX NSCLC
HCC-2998 colon = tested on: HCC-2998 colon
HCT-116 colon = tested on: HCT-116 colon
HCT-15 colon = tested on: HCT-15 colon
HL-60(TB) leukemia = tested on: HL-60(TB) leukemia
HOP-62 NSCLC = tested on: HOP-62 NSCLC
HOP-92 NSCLC = tested on: HOP-92 NSCLC
HS 578T breast = tested on: HS 578T breast
HT29 colon = tested on: HT29 colon
IGROV1 ovarian = tested on: IGROV1 ovarian
K-562 leukemia = tested on: K-562 leukemia
KM12 colon = tested on: KM12 colon
LOX IMVI melanoma = tested on: LOX IMVI melanoma
M14 melanoma = tested on: M14 melanoma
MALME-3M melanoma = tested on: MALME-3M melanoma
MDA-MB-231 breast = tested on: MDA-MB-231 breast
MDA-MB-435 = tested on: MDA-MB-435
MOLT-4 leukemia = tested on: MOLT-4 leukemia
NCI-H23 lung = tested on: NCI-H23 lung
NCI-H460 lung = tested on: NCI-H460 lung
NCI-H522 lung = tested on: NCI-H522 lung
NCI/ADR-RES ovarian = tested on: NCI/ADR-RES ovarian
OVCAR-3 ovarian = tested on: OVCAR-3 ovarian
OVCAR-4 ovarian = tested on: OVCAR-4 ovarian
OVCAR-5 ovarian = tested on: OVCAR-5 ovarian
OVCAR-8 ovarian = tested on: OVCAR-8 ovarian
PC-3 prostate = tested on: PC-3 prostate
RPMI-8226 leukemia = tested on: RPMI-8226 leukemia
RXF 393 renal = tested on: RXF 393 renal
SF-268 CNS = tested on: SF-268 CNS
SF-295 CNS = tested on: SF-295 CNS
SF-539 CNS = tested on: SF-539 CNS
SK-MEL-2 melanoma = tested on: SK-MEL-2 melanoma
SK-MEL-28 melanoma = tested on: SK-MEL-28 melanoma
SK-MEL-5 melanoma = tested on: SK-MEL-5 melanoma
SN12C renal = tested on: SN12C renal
SNB-19 CNS = tested on: SNB-19 CNS
SNB-75 CNS = tested on: SNB-75 CNS
SR leukemia = tested on: SR leukemia
SW-620 colon = tested on: SW-620 colon
TK-10 renal = tested on: TK-10 renal
U251 CNS = tested on: U251 CNS
UACC-257 melanoma = tested on: UACC-257 melanoma
UACC-62 melanoma = tested on: UACC-62 melanoma
UO-31 renal = tested on: UO-31 renal

Question: Which GI50 (786-0 renal) does the source give for `O=C(Nc1ccc(F)cc1F)c1cc(F)ccc1O` here?
Answer: 3.19 µM

Question: What about the TGI (786-0 renal) of the same compound?
Answer: 16.2 µM

Question: What about the GI50 (A498 renal) of the same compound?
Answer: 1.84 µM

Question: And the TGI (A498 renal)?
Answer: 5.53 µM

Question: What about the GI50 (A549 NSCLC) of the same compound?
Answer: 3.04 µM

Question: And the TGI (A549 NSCLC)?
Answer: > 100 µM

Question: What about the GI50 (BT-549 breast) of the same compound?
Answer: 2.43 µM

Question: What about the TGI (BT-549 breast) of the same compound?
Answer: 6.75 µM

Question: What about the GI50 (CAKI-1 renal) of the same compound?
Answer: 2.37 µM

Question: And the TGI (CAKI-1 renal)?
Answer: 11.6 µM

Question: What about the GI50 (CCRF-CEM leukemia) of the same compound?
Answer: 3.35 µM

Question: What about the TGI (CCRF-CEM leukemia) of the same compound?
Answer: > 100 µM

Question: And the GI50 (COLO 205 colon)?
Answer: 2.08 µM

Question: What about the TGI (COLO 205 colon) of the same compound?
Answer: 5.06 µM

Question: What about the GI50 (DU-145 prostate) of the same compound?
Answer: 3.62 µM

Question: What about the TGI (DU-145 prostate) of the same compound?
Answer: > 100 µM

Question: What about the GI50 (EKVX NSCLC) of the same compound?
Answer: 2.23 µM

Question: What about the TGI (EKVX NSCLC) of the same compound?
Answer: 10.5 µM

Question: And the GI50 (HCC-2998 colon)?
Answer: 3.12 µM

Question: And the TGI (HCC-2998 colon)?
Answer: 13.1 µM

Question: And the GI50 (HCT-116 colon)?
Answer: 2.91 µM

Question: And the TGI (HCT-116 colon)?
Answer: 11.1 µM

Question: And the GI50 (HCT-15 colon)?
Answer: 2.92 µM

Question: What about the TGI (HCT-15 colon) of the same compound?
Answer: > 100 µM

Question: And the GI50 (HL-60(TB) leukemia)?
Answer: 2.33 µM

Question: And the TGI (HL-60(TB) leukemia)?
Answer: 5.38 µM

Question: What about the GI50 (HOP-62 NSCLC) of the same compound?
Answer: 2.9 µM

Question: What about the TGI (HOP-62 NSCLC) of the same compound?
Answer: 47.2 µM

Question: What about the GI50 (HOP-92 NSCLC) of the same compound?
Answer: 0.569 µM

Question: What about the TGI (HOP-92 NSCLC) of the same compound?
Answer: 3.59 µM

Question: What about the GI50 (HS 578T breast) of the same compound?
Answer: 2.37 µM

Question: What about the TGI (HS 578T breast) of the same compound?
Answer: 9.14 µM

Question: And the GI50 (HT29 colon)?
Answer: 3.37 µM

Question: What about the TGI (HT29 colon) of the same compound?
Answer: > 100 µM

Question: What about the GI50 (IGROV1 ovarian) of the same compound?
Answer: 2.58 µM

Question: And the TGI (IGROV1 ovarian)?
Answer: > 100 µM

Question: And the GI50 (K-562 leukemia)?
Answer: 2.41 µM

Question: And the TGI (K-562 leukemia)?
Answer: > 100 µM

Question: What about the GI50 (KM12 colon) of the same compound?
Answer: 2.76 µM

Question: And the TGI (KM12 colon)?
Answer: 10.6 µM

Question: What about the GI50 (LOX IMVI melanoma) of the same compound?
Answer: 3.39 µM

Question: And the TGI (LOX IMVI melanoma)?
Answer: 12.1 µM

Question: What about the GI50 (M14 melanoma) of the same compound?
Answer: 2.82 µM

Question: What about the TGI (M14 melanoma) of the same compound?
Answer: 13.2 µM

Question: And the GI50 (MALME-3M melanoma)?
Answer: 2.04 µM

Question: What about the TGI (MALME-3M melanoma) of the same compound?
Answer: 7.66 µM

Question: What about the GI50 (MDA-MB-231 breast) of the same compound?
Answer: 1.9 µM

Question: And the TGI (MDA-MB-231 breast)?
Answer: 4.9 µM

Question: And the GI50 (MDA-MB-435)?
Answer: 2.86 µM

Question: What about the TGI (MDA-MB-435) of the same compound?
Answer: 34.2 µM

Question: And the GI50 (MOLT-4 leukemia)?
Answer: 2.63 µM

Question: And the TGI (MOLT-4 leukemia)?
Answer: 6.88 µM

Question: And the GI50 (NCI-H23 lung)?
Answer: 2.07 µM

Question: What about the TGI (NCI-H23 lung) of the same compound?
Answer: 6.62 µM

Question: And the GI50 (NCI-H460 lung)?
Answer: 2.94 µM

Question: And the TGI (NCI-H460 lung)?
Answer: > 100 µM

Question: What about the GI50 (NCI-H522 lung) of the same compound?
Answer: 2.59 µM

Question: And the TGI (NCI-H522 lung)?
Answer: > 100 µM

Question: What about the GI50 (NCI/ADR-RES ovarian) of the same compound?
Answer: 2.81 µM

Question: And the TGI (NCI/ADR-RES ovarian)?
Answer: 9.78 µM

Question: What about the GI50 (OVCAR-3 ovarian) of the same compound?
Answer: 2.77 µM

Question: And the TGI (OVCAR-3 ovarian)?
Answer: 21.9 µM

Question: What about the GI50 (OVCAR-4 ovarian) of the same compound?
Answer: 2.59 µM

Question: What about the TGI (OVCAR-4 ovarian) of the same compound?
Answer: > 100 µM

Question: What about the GI50 (OVCAR-5 ovarian) of the same compound?
Answer: 3.18 µM

Question: And the TGI (OVCAR-5 ovarian)?
Answer: > 100 µM

Question: And the GI50 (OVCAR-8 ovarian)?
Answer: 3.44 µM

Question: And the TGI (OVCAR-8 ovarian)?
Answer: > 100 µM

Question: And the GI50 (PC-3 prostate)?
Answer: 2.61 µM

Question: And the TGI (PC-3 prostate)?
Answer: 9.53 µM

Question: And the GI50 (RPMI-8226 leukemia)?
Answer: 1.4 µM

Question: And the TGI (RPMI-8226 leukemia)?
Answer: 5.01 µM

Question: What about the GI50 (RXF 393 renal) of the same compound?
Answer: 2.49 µM

Question: What about the TGI (RXF 393 renal) of the same compound?
Answer: 8.33 µM

Question: What about the GI50 (SF-268 CNS) of the same compound?
Answer: 3.34 µM

Question: What about the TGI (SF-268 CNS) of the same compound?
Answer: 67.1 µM

Question: What about the GI50 (SF-295 CNS) of the same compound?
Answer: 1.99 µM

Question: What about the TGI (SF-295 CNS) of the same compound?
Answer: 4.36 µM

Question: What about the GI50 (SF-539 CNS) of the same compound?
Answer: 2.85 µM

Question: What about the TGI (SF-539 CNS) of the same compound?
Answer: 12.3 µM

Question: What about the GI50 (SK-MEL-2 melanoma) of the same compound?
Answer: 2.48 µM

Question: And the TGI (SK-MEL-2 melanoma)?
Answer: 6.54 µM

Question: What about the GI50 (SK-MEL-28 melanoma) of the same compound?
Answer: 2.77 µM

Question: And the TGI (SK-MEL-28 melanoma)?
Answer: 13.2 µM

Question: What about the GI50 (SK-MEL-5 melanoma) of the same compound?
Answer: 1.27 µM

Question: And the TGI (SK-MEL-5 melanoma)?
Answer: 2.81 µM

Question: And the GI50 (SN12C renal)?
Answer: 2.2 µM

Question: What about the TGI (SN12C renal) of the same compound?
Answer: 8.02 µM

Question: And the GI50 (SNB-19 CNS)?
Answer: 3.17 µM

Question: And the TGI (SNB-19 CNS)?
Answer: > 100 µM

Question: What about the GI50 (SNB-75 CNS) of the same compound?
Answer: 3.19 µM

Question: And the TGI (SNB-75 CNS)?
Answer: 30.7 µM

Question: What about the GI50 (SR leukemia) of the same compound?
Answer: 3.95 µM

Question: And the TGI (SR leukemia)?
Answer: > 100 µM

Question: And the GI50 (SW-620 colon)?
Answer: 3.15 µM

Question: And the TGI (SW-620 colon)?
Answer: > 100 µM

Question: And the GI50 (TK-10 renal)?
Answer: 4.48 µM

Question: What about the TGI (TK-10 renal) of the same compound?
Answer: > 100 µM

Question: What about the GI50 (U251 CNS) of the same compound?
Answer: 2.95 µM

Question: And the TGI (U251 CNS)?
Answer: > 100 µM

Question: And the GI50 (UACC-257 melanoma)?
Answer: 2.26 µM

Question: What about the TGI (UACC-257 melanoma) of the same compound?
Answer: 7.32 µM

Question: And the GI50 (UACC-62 melanoma)?
Answer: 1.38 µM

Question: And the TGI (UACC-62 melanoma)?
Answer: 4.12 µM

Question: And the GI50 (UO-31 renal)?
Answer: 1.96 µM

Question: And the TGI (UO-31 renal)?
Answer: 7.16 µM
